Test results taken from article PMC11492426, “Design, synthesis, and biological evaluation of novel quinoline-based EGFR/HER-2 dual-target inhibitors as potential anti-tumor agents” (RSC Advances, 2024).

Assays:
[1] = system: HT-29 colon cancer cell line; assay: Antiproliferative assay, HT-29; assay type: cell-based; conditions: Homo sapiens; HT-29 colon cancer cells; read-out: Antiproliferative activity IC50 ± SEM, HT-29
[2] = system: Panc-1 pancreatic cancer cell line; assay: Antiproliferative assay, Panc-1; assay type: cell-based; conditions: Homo sapiens; Panc-1 pancreatic cancer cells; read-out: Antiproliferative activity IC50 ± SEM, Panc-1
[3] = system: MCF-7 breast cancer cell line; assay: Antiproliferative assay, MCF-7; assay type: cell-based; conditions: Homo sapiens, MCF7; MCF-7 breast cancer cells; read-out: Antiproliferative activity IC50 ± SEM, MCF-7
[4] = Cell viability assay (MTT) on MCF-10A normal cells; assay type: cell-based; conditions: human, MCF-10A mammary gland epithelial normal cells, MCF-10A cells, four-day incubation
Experimental: The impact of compounds 3a–h and 5a–d on cell viability was evaluated using the human mammary (MCF-10A) gland epithelium normal cell line. The MTT assay was used to evaluate the cell viability of 3a–h and 5a–d after a four-day incubation period on MCF-10A cells.[46] Refer to Appendix A for more details.
The effect of new compounds 3a–h and 5a–d on cell viability was evaluated using the MCF-10A (human mammary gland epithelium) normal cell line.
4.2. Biological evaluation
4.2.1 Cell Viability assay (MTT assay)
MTT assay was performed to investigate the effect of the synthesized compounds on mammary epithelial cells (MCF-10A). The cells were propagated in medium consisting of Ham's F-12 medium/ Dulbecco's modified Eagle's medium (DMEM) (1:1) supplemented with 10% foetal calf serum, 2 mM glutamine, insulin (10 μg/mL), hydrocortisone (500 ng/mL) and epidermal growth factor (20 ng/mL). Trypsin ethylenediamine tetra acetic acid (EDTA) was used to passage the cells after every 2-3 days. 96-well flat-bottomed cell culture plates were used to seed the cells at a density of 10^4 cells mL-1. The medium was aspirated from all the wells of culture plates after 24 h followed by the addition of synthesized compounds (in 200 μL medium to yield a final concentration of 0.1% (v/v) dimethyl sulfoxide) into individual wells of the plates. Four wells were designated to a single compound. The plates were allowed to incubate at 37°C for 96 h. Afterwards, the medium was aspirated and 3-[4,5-dimethylthiazol-2-yl]-2,5-diphenyltetrazolium bromide (MTT) (0.4 mg/mL) in medium was added to each well and subsequently incubated for 3 h. The medium was aspirated and 150 μL dimethyl sulfoxide (DMSO) was added to each well. The plates were vortexed followed by the measurement of absorbance at 540 nm on a microplate reader. The results were presented as inhibition (%) of proliferation in contrast to controls comprising 0.1% DMSO.

[5] = system: A-549 lung cancer cell line; assay: Antiproliferative assay, A-549; assay type: cell-based; conditions: Homo sapiens, A549; A-549 lung cancer cells; read-out: Antiproliferative activity IC50 ± SEM, A-549
[6] = system: four human cancer cell lines (A-549, MCF-7, Panc-1, HT-29); assay: Antiproliferative assay, average over four cancer cell lines; assay type: cell-based; conditions: average IC50 over the four cancer cell lines

Compound	melting point [°C]	IC50 [1] [nM]	IC50 [2] [nM]	IC50 [3] [nM]	viability at 96 h, 50 µM [4] [%]	IC50 [5] [nM]	GI50 ([6]; Homo sapiens) [nM]	GI50 [6] [nM]
O=c1[nH]c2ccccc2c(O)c1/C=N/c1nc(-c2ccccc2)n[nH]1 [Compound 3a, (E) 4-hydroxy-3-(((3-phenyl-1H-1,2,4-triazol-5-yl)imino)methyl)quinolin-2(1H)-one]	310 to 312	74 ± 7	74 ± 7	69 ± 6	89	72 ± 7	72	
Cc1ccc2[nH]c(=O)c(/C=N/c3nc(-c4ccccc4)n[nH]3)c(O)c2c1 [Compound 3b, (E) 4-hydroxy-6-methyl-3-(((3-phenyl-1H-1,2,4-triazol-5-yl)imino)methyl)quinolin-2(1H)-one]	325 to 327	71 ± 6	70 ± 6	67 ± 6	90	70 ± 6	70	
COc1ccc2[nH]c(=O)c(/C=N/c3nc(-c4ccccc4)n[nH]3)c(O)c2c1 [Compound 3c, (E)-4-hydroxy-6-methoxy-3-(((3-phenyl-1H-1,2,4-triazol-5-yl)imino)methyl) quinolin-2(1H)-one]	330 to 332	52 ± 4	54 ± 5	46 ± 4	87	50 ± 5	51	
Cn1c(=O)c(/C=N/c2nc(-c3ccccc3)n[nH]2)c(O)c2ccccc21 [Compound 3d, (E)-4-hydroxy-1-methyl-3-(((3-phenyl-1H-1,2,4-triazol-5-yl)imino)methyl)quinolin-2(1H)-one]	295 to 297	77 ± 7	76 ± 7	74 ± 7	89	76 ± 7	76	
Cc1ccc2[nH]c(=O)c(/C=N/c3nc(-c4ccncc4)n[nH]3)c(O)c2c1 [Compound 3f, (E)-4-hydroxy-6-methyl-3-(((3-(pyridin-4-yl)-1H-1,2,4-triazol-5-yl)imino)methyl) quinolin-2(1H)-one]		64 ± 6	65 ± 6	59 ± 5	90	62 ± 6	63	
COc1ccc2[nH]c(=O)c(/C=N/c3nc(-c4ccncc4)n[nH]3)c(O)c2c1 [Compound 3g, (E)-4-hydroxy-6-methoxy-3-(((3-(pyridin-4-yl)-1H-1,2,4-triazol-5-yl)imino)methyl) quinol-in-2(1H)-one]		66 ± 6	64 ± 6	60 ± 6	89	64 ± 6	82	64
Cn1c(=O)c(/C=N/c2nc(-c3ccncc3)n[nH]2)c(O)c2ccccc21 [Compound 3h, (E)-4-hydroxy-1-methyl-3-(((3-(pyridin-4-yl)-1H-1,2,4-triazol-5-yl)imino)methyl) quinolin-2(1H)-one]	310 to 312	82 ± 8	86 ± 8	78 ± 7	85	82 ± 8	82	
COc1ccc2[nH]c(=O)c(C=Nc3ccc(NS(=O)(=O)c4ncccn4)cc3)c(O)c2c1 [Compound 5c, N-(4-(((4-hydroxy-6-methoxy-2-oxo-1,2-dihydroquinolin-3-yl)methylene)amino)phenyl)pyrimidine-2-sulfonamide]		55 ± 5	54 ± 5	49 ± 4	86	53 ± 5	53	
